# Laboratory results from US20110245283A1, “Methods for predicting the response to statins” (priority 2009, published 2011).
# Read-outs that look alike come from different tables or passages of the source.
# How the values were obtained:
# LDL [1] = details: cited from earlier work
# LDL [2] = test: Proportion of CAD patients attaining LDL goal (<100 mg/dl) on a statin dose; validation sets stratified by predicted probability; details: for Proportion of patients achieving goal: validation set; for Chance of success (reaching goal) of any dose choice: this study
# LDL [3] = test: Logistic regression models of attaining LDL goal: odds ratios for concurrent or prior drug doses; type: in vivo, patients; details: for OR: odds of goal
# Description: G. Covariates for the multivariate model—The following list includes the predictors one or more of which may be tested in the multivariate models. • 1. AGE: (expressed in units of 10 years) at time that the new statin prescription was released • 2. GENDER, E. G., MALE: 1=yes, 0=no • 3. BMI (kg/M^2): last value before release date • 4. HBA1C (hemoglobin Alc): last value before release date • 5. PLDL: preceding LDL level expressed in e.g. 10 mg/dl units • 6. Statins • a. PLOVA: prior daily dose of lovastatin expressed in e.g. 10 mg units • b. […] For additional drugs: • a. AMIODOSE: amiodarone dose in mg/day • b. CARBDOSE: carbemazepine dose in mg/day • c. PIOGDOSE: pioglitazone dose expressed as number of 15 mg doses per day • d. […] METFDOSE: metformin dose expressed as number of 1000 mg doses per day • f. PHENDOSE: phenyloin dose in mg/day • g. RISPDOSE: risperidone dose in mg/day • h. ROSIDOSE: rosiglitazone dose in mg/day • i.
# Body mass index (BMI) was chosen as a covariate of statin response because obese patients tend to consume a diet high in cholesterol. It was hypothesized that they would respond less well to statins because their hypercholesterolemia was more likely to be mediated by dietary indiscretion than excessive LDL synthesis. […] Metformin and the thiazolidinediones were chosen because they reduce LDL levels in diabetic patients through mechanisms that may or may not be affected by concurrent statin treatment. The remaining non-statin drugs were chosen because they are commonly used drugs that potentiate the effect of statins. They were selected by reviewing the official on-line VA pharmaceutical reference (Micromedex®) for major interactions mediated by impaired statin metabolism. […] The daily dose of the non-statin drug was calculated by the method described in Section B.
# H. Assembling the predictor file—The patient identifier was used to link the new statin prescription type and dose, the preceding LDL above goal, and the type and dose of the previous statin (if any) with the patient's most recent HbA1c, most recent BMI, and the daily doses of 9 drugs with major statin interactions that were active at the time the new prescription was released.
# The dependent variable was attainment of goal (LDL <100 mg/dl). […] Step selections were based upon the maximal likelihood method with α<0.15 to enter and ≧0.15 to remove.
smiles,measurement,setting,value
"CC(C)c1nc(N(C)S(C)(=O)=O)nc(-c2ccc(F)cc2)c1/C=C/[C@@H](O)C[C@@H](O)CC(=O)O [Rosuva, rosuvastatin]",Average LDL reduction,LDL [1]; Dose 5 mg,43%
same,Average LDL reduction,LDL [1]; Dose 10 mg,50%
same,Average LDL reduction,LDL [1]; Dose 20 mg,53%
same,Average LDL reduction,LDL [1]; Dose 40 mg,62%
"CCC(C)(C)C(=O)O[C@H]1C[C@@H](C)C=C2C=C[C@H](C)[C@H](CC[C@@H]3C[C@@H](O)CC(=O)O3)[C@H]21 [Simvastatin, simvastatin]",Proportion of patients achieving goal,"LDL [2]; Model 1, simvastatin 10 mg, predicted probability 0-19%",14.3%
same,Proportion of patients achieving goal,"LDL [2]; Model 1, simvastatin 10 mg, predicted probability 20-39%",31.8%
same,Proportion of patients achieving goal,"LDL [2]; Model 1, simvastatin 10 mg, predicted probability 40-59%",57.6%
same,Proportion of patients achieving goal,"LDL [2]; Model 1, simvastatin 10 mg, predicted probability 60-79%",69.7%
same,Proportion of patients achieving goal,"LDL [2]; Model 1, simvastatin 10 mg, predicted probability 80-100%",100%
same,Proportion of patients achieving goal,"LDL [2]; Model 1, simvastatin 20 mg, predicted probability 0-19%",11.1%
same,Proportion of patients achieving goal,"LDL [2]; Model 1, simvastatin 20 mg, predicted probability 20-39%",32.9%
same,Proportion of patients achieving goal,"LDL [2]; Model 1, simvastatin 20 mg, predicted probability 60-79%",66.2%
same,Proportion of patients achieving goal,"LDL [2]; Model 1, simvastatin 40 mg, Overall",57.0%
same,Proportion of patients achieving goal,"LDL [2]; Model 1, simvastatin 40 mg, predicted probability 0-19%",36.4%
same,Proportion of patients achieving goal,"LDL [2]; Model 1, simvastatin 40 mg, predicted probability 20-39%",30.4%
same,Proportion of patients achieving goal,"LDL [2]; Model 1, simvastatin 40 mg, predicted probability 40-59%",54.2%
same,Proportion of patients achieving goal,"LDL [2]; Model 1, simvastatin 40 mg, predicted probability 60-79%",67.2%
same,Proportion of patients achieving goal,"LDL [2]; Model 1, simvastatin 40 mg, predicted probability 80-100%",0%
same,Proportion of patients achieving goal,"LDL [2]; Model 1, simvastatin 80 mg, Overall",61.9%
same,Proportion of patients achieving goal,"LDL [2]; Model 1, simvastatin 80 mg, predicted probability 20-39%",42.7%
same,Proportion of patients achieving goal,"LDL [2]; Model 1, simvastatin 80 mg, predicted probability 40-59%",42.7%
same,Proportion of patients achieving goal,"LDL [2]; Model 1, simvastatin 80 mg, predicted probability 60-79%",68.9%
same,Proportion of patients achieving goal,"LDL [2]; Model 1, simvastatin 80 mg, predicted probability 80-100%",74.3%
same,Proportion of patients achieving goal,"LDL [2]; Simvastatin 10 mg [A] model, predicted probability 0-19%",8.3%
same,Proportion of patients achieving goal,"LDL [2]; Simvastatin 10 mg [A] model, predicted probability 20-39%",29.7%
same,Proportion of patients achieving goal,"LDL [2]; Simvastatin 10 mg [A] model, predicted probability 40-59%",62.1%
same,Proportion of patients achieving goal,"LDL [2]; Simvastatin 10 mg [A] model, predicted probability 60-79%",68.6%
same,Proportion of patients achieving goal,"LDL [2]; Simvastatin 10 mg [A] model, predicted probability 80-100%",75.0%
same,Proportion of patients achieving goal,"LDL [2]; Simvastatin 10 mg [B] model, Overall",52.1%
same,Proportion of patients achieving goal,"LDL [2]; Simvastatin 10 mg [B] model, predicted probability 0-19%",10.0%
same,Proportion of patients achieving goal,"LDL [2]; Simvastatin 10 mg [B] model, predicted probability 20-39%",26.3%
same,Proportion of patients achieving goal,"LDL [2]; Simvastatin 10 mg [B] model, predicted probability 40-59%",58.8%
same,Proportion of patients achieving goal,"LDL [2]; Simvastatin 10 mg [B] model, predicted probability 60-79%",70.6%
same,Proportion of patients achieving goal,"LDL [2]; Simvastatin 10 mg [B] model, predicted probability 80-100%",100%
same,Proportion of patients achieving goal,"LDL [2]; Simvastatin 10 mg [C] model, predicted probability 0-19%",11.8%
same,Proportion of patients achieving goal,"LDL [2]; Simvastatin 10 mg [C] model, predicted probability 20-39%",31.8%
same,Proportion of patients achieving goal,"LDL [2]; Simvastatin 10 mg [C] model, predicted probability 40-59%",60.0%
same,Proportion of patients achieving goal,"LDL [2]; Simvastatin 10 mg [C] model, predicted probability 60-79%",74.2%
same,Proportion of patients achieving goal,"LDL [2]; Simvastatin 10 mg [C] model, predicted probability 80-100%",75.0%
same,Proportion of patients achieving goal,"LDL [2]; Simvastatin 20 mg [C] model, predicted probability 0-19%",10.5%
same,Proportion of patients achieving goal,"LDL [2]; Simvastatin 20 mg [C] model, predicted probability 20-39%",35.1%
same,Proportion of patients achieving goal,"LDL [2]; Simvastatin 20 mg [C] model, predicted probability 60-79%",65.3%
same,Proportion of patients achieving goal,"LDL [2]; Simvastatin 40 mg model, Overall",57.4%
same,Proportion of patients achieving goal,"LDL [2]; Simvastatin 40 mg model, predicted probability 0-19%",20.0%
same,Proportion of patients achieving goal,"LDL [2]; Simvastatin 40 mg model, predicted probability 20-39%",38.6%
same,Proportion of patients achieving goal,"LDL [2]; Simvastatin 40 mg model, predicted probability 40-59%",54.6%
same,Proportion of patients achieving goal,"LDL [2]; Simvastatin 40 mg model, predicted probability 60-79%",67.0%
same,Proportion of patients achieving goal,"LDL [2]; Simvastatin 40 mg model, predicted probability 80-100%",65.0%
same,Proportion of patients achieving goal,"LDL [2]; Simvastatin 80 mg model, Overall",61.9%
same,Proportion of patients achieving goal,"LDL [2]; Simvastatin 80 mg model, predicted probability 20-39%",41.7%
same,Proportion of patients achieving goal,"LDL [2]; Simvastatin 80 mg model, predicted probability 40-59%",41.9%
same,Proportion of patients achieving goal,"LDL [2]; Simvastatin 80 mg model, predicted probability 60-79%",72.8%
same,Proportion of patients achieving goal,"LDL [2]; Simvastatin 80 mg model, predicted probability 80-100%",70.8%
same,Chance of success (reaching goal) of any dose choice,LDL [2]; all choices except 80 mg daily,≤ 60%
same,Chance of success (reaching goal) of any dose choice,LDL [2]; all doses,≤ 62%
same,Reduction of odds of reaching goal,"LDL [3]; for every 10 mg/day in the previous simvastatin dose, simvastatin 20 model",70%
same,OR,"LDL [3]; Model 1, Simvastatin 10 mg, per 10 mg/day",0.130
same,OR,"LDL [3]; Model 1, Simvastatin 20 mg, per 10 mg/day",0.355
same,OR,"LDL [3]; Model 1, Simvastatin 40 mg, per 10 mg/day",0.771
same,OR,"LDL [3]; Model 1, Simvastatin 80 mg, per 10 mg/day",0.900
same,OR,"LDL [3]; Simvastatin 10 mg [B] model (includes BMI; n = 136), per dose increment",0.0593
same,OR,"LDL [3]; Simvastatin 10 mg [C] model (excludes BMI; n = 219), per dose increment",0.149
same,OR,"LDL [3]; Simvastatin 20 mg model (n = 374), per dose increment",0.356
same,OR,"LDL [3]; Simvastatin 40 mg model (n = 698), per dose increment",0.788
same,OR,"LDL [3]; Simvastatin 80 mg model (n = 481), per dose increment",0.887
"CC(C)c1c(C(=O)Nc2ccccc2)c(-c2ccccc2)c(-c2ccc(F)cc2)n1CC[C@@H](O)C[C@@H](O)CC(=O)O [Atorva, atorvastatin]",Average LDL reduction,LDL [1]; Dose 10 mg,36%
same,Average LDL reduction,LDL [1]; Dose 20 mg,46%
same,Average LDL reduction,LDL [1]; Dose 40 mg,51%
same,Average LDL reduction,LDL [1]; Dose 80 mg,54%
"CC(C)n1c(/C=C/C(O)CC(O)CC(=O)O)c(-c2ccc(F)cc2)c2ccccc21 (stereo not shown) [Fluva, fluvastatin]",Average LDL reduction,LDL [1]; Dose 20 mg,17%
same,Average LDL reduction,LDL [1]; Dose 40 mg,23%
same,Average LDL reduction,LDL [1]; Dose 80 mg,33%
"CC[C@H](C)C(=O)O[C@H]1C[C@H](O)C=C2C=C[C@H](C)[C@H](CC[C@@H](O)C[C@@H](O)CC(=O)O)[C@H]21 [Prava, pravastatin]",Average LDL reduction,LDL [1]; Dose 10 mg,19%
same,Average LDL reduction,LDL [1]; Dose 20 mg,24%
same,Average LDL reduction,LDL [1]; Dose 40 mg,34%
same,Average LDL reduction,LDL [1]; Dose 80 mg,40%
